The test system of experiment [1] is estrogen binding protein (EBP), 84 kD heterodimer, mouse fetal liver. Description: Competition for / modulation of ^3H-estradiol-17β binding to EBP (charcoal assay). As to conditions: for inhibition of / influence on ^3H-estradiol-17β binding to EBP: competitor concentration not stated. Here is the method: (§1) In brief, the procedure is as follows. […] Simultaneously tubes in duplicate without any added protein sample were set up as control. At the end of the incubation the tubes were put in an ice bath for 15 minutes to cool to the ice bath temperature. 0.5 ml of charcoal solution (0.05% heat activated charcoal plus 0.05% bovine serum albumin in tris buffer) was added, mixed and incubated further for 10 minutes. The tubes were then centrifuged at 2500 rpm for 15 minutes at 4°C to pellet the charcoal. 0.5 ml from each tube was carefully withdrawn without disturbing the charcoal pellet at the bottom of the tube and the radioactivity was measured following mixing with the scintillation cocktail. The net protein bound radioactivity was calculated after deducting the background counts based on the tubes without any added protein.

Experiment [2] has the same test system. The method, then:
as §1

For experiment [3], the system named is type II ER. As to conditions: literature (40-41,43); cited from earlier work.
The test system of experiment [4] is estrogen binding protein (EBP), 84 kD heterodimer, mouse fetal liver. As to the kind of experiment: Sucrose density gradient centrifugation of EBP incubated with ^3H-estradiol-17β and competitor. Particulars: ^3H-estradiol-17β 0.85 pmol + dimethylbenzanthracene 0.42 nmol or 1.2 nmol; Fig. 17. From the text:
In the light of the above information attempts were made to analyse whether some of the known pollutants and carcinogens (1-OH, 3-OH, 8-OH, 10-OH benzo(a)pyrene, […]) compete in vitro with ^3H-estradiol-17β for binding site on EBP. […] Since benzo(a)pyrene is a known carcinogen it will be important to determine whether there is a structural relationship between estradiol-17β and the various hydroxy benzo(a)pyrenes. […] It is well known that DMBA is a potent carcinogen and as such it has been extensively used to induce estrogen dependent mammary and endometrial cancers in animals. […] However, this agent is still utilized to coat common plastics of daily use. […] Establishment of a correlationship between the in vitro and in vivo potency of such compounds will provide a rapid in vitro screening assay. Most importantly, such information for the first time will delineate a definitive role for an estrogen binder such as EBP in carcinogenesis and may also enable to explain why compounds such as DMBA induce tumors in estrogen responsive tissues as well as why the tumors are estrogen dependent.

Entries after “also recorded” stand apart in the source; their conditions may differ. Like-named read-outs stand apart in the source and are kept apart here.

Take `C[C@]12CC[C@@H]3c4ccc(O)cc4CC[C@H]3[C@@H]1CC[C@H]2O` [estradiol-17α]: the “inhibition of ^3H-estradiol-17β binding to EBP” value in experiment [1] (competitor at 300-fold the concentration of the radiolabelled estrogen) is recorded as “no inhibitory effect”. Regarding `NCCc1ccc(O)c(O)c1` [dopamine], in experiment [1] (both at low and high molarity), the “influence on ^3H-estradiol-17β binding to EBP” value was “did not significantly influence”. Also, the “inhibition of / influence on ^3H-estradiol-17β binding to EBP” value (shortened to “inhibition of / influence”) in experiment [1] was “did not influence”. In addition, the “binding of the radiolabelled compound to EBP” value in experiment [2] (radiolabelled ligand) is “no binding”.

With `CC/C(=C(\c1ccc(O)cc1)c1ccc(OCCN(C)C)cc1)c1ccccc1` [4-hydroxytamoxifen], in experiment [1], the “inhibition of / influence” value is recorded as “no significant inhibitory effect”. On to `CC/C(=C(\c1ccccc1)c1ccc(OCCN(C)C)cc1)c1ccccc1` [Tamoxifen], for which the “inhibition of / influence” value in experiment [1] is “no significant inhibitory effect”.

Consider `C[C@]12CC[C@@H]3c4ccc(O)cc4CC[C@H]3[C@@H]1C[C@@H](O)[C@@H]2O` [estriol], for which the “relative binding activities of the competing estrogens” value in experiment [1] (calculated at the 50% reduction level, compared to non-labelled estradiol-17β competing potency) is reported as 37%. Besides, in experiment [1], the “inhibition of / influence” value is on record as “significantly inhibited”. For `CC/C(=C(/CC)c1ccc(O)cc1)c1ccc(O)cc1` [diethylstilbestrol], the “binding of the radiolabelled compound to EBP” value in experiment [2] is “does not bind; also recorded: most estrogens no Des binding no competition (prog, androgen, corticoids)”.

Regarding `O[C@H](CS)[C@H](O)CS` (racemic) [DTT, dithiotreitol], the “sensitivity of type II ER estrogen binding to DTT” value in experiment [3] is given as “highly sensitive”.

For the compound `Cc1c2ccccc2c(C)c2c1ccc1ccccc12` [DMBA, 7,12-dimethylbenzanthracene], the “inhibition of ^3H-estradiol-17β binding (sucrose gradient centrifugation)” value in experiment [4] is listed as “inhibition”.

Source of the values: patent EP0939084A1, “An estrogen binding proteinaceous substance, its possible role in estrogen action, and potential use” (Rao, Ramanath B., priority 1998, dated 1999).
